Test [1] concerns the target T1, recombinant thioredoxin reductase 1 (TrxR1) (Homo sapiens, UniProt Q16881).
T1 sequence (Q16881 1-649): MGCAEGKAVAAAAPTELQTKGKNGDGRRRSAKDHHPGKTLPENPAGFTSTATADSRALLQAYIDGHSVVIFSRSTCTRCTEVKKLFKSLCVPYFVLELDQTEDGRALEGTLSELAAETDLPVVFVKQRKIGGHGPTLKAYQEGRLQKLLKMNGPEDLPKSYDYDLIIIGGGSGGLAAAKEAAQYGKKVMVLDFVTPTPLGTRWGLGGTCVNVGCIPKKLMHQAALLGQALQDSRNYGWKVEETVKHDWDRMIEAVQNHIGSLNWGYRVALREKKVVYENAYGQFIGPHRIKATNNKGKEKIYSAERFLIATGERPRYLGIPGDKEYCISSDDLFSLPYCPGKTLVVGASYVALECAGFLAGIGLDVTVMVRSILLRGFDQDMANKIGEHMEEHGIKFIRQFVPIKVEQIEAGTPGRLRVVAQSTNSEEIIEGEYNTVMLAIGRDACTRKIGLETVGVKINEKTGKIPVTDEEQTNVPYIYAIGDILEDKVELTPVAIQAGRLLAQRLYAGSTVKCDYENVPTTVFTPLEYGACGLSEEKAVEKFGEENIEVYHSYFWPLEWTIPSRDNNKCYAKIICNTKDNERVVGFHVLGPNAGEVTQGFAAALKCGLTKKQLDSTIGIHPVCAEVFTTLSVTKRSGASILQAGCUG
Put plainly: Inhibition of recombinant TrxR1 (DTNB assay). The class given is biochemical. As for the experimental part: (§1) Small molecule inhibition of recombinant thioredoxin reductase 1 (TrxR1) and gluthathione reductase (GR) was examined in 96-well plate format. 15 nM TrxR1 was incubated in the presence of 250 μM NADPH, 0.1 mg/ml BSA, and various concentrations of the compound of Example 1 (1% DMSO final) in 50 mM Tris (pH 7.5) and 2 mM EDTA buffer for 15 minutes. Following the incubation period, 2.5 mM DTNB was added to each well and the change in O.D. at 412 nm was followed. Percent activity was determined using DMSO vehicle and no TrxR1 (blank) controls. 2 nM GR was incubated in the presence of 250 μM NADPH, 0.1 mg/ml BSA, and various concentrations of compounds (1% DMSO final) in 50 mM Tris (pH 7.5) and 2 mM EDTA buffer for 15 minutes. Following the incubation period, 1 mM GSSG was added to each well and the change in O.D. at 340 nm was followed. Percent activity was determined using DMSO vehicle and no GR (blank) controls.

For test [2], the target named is T2, gluthathione reductase (GR) (Homo sapiens, UniProt P00390).
T2 sequence (P00390 44-522): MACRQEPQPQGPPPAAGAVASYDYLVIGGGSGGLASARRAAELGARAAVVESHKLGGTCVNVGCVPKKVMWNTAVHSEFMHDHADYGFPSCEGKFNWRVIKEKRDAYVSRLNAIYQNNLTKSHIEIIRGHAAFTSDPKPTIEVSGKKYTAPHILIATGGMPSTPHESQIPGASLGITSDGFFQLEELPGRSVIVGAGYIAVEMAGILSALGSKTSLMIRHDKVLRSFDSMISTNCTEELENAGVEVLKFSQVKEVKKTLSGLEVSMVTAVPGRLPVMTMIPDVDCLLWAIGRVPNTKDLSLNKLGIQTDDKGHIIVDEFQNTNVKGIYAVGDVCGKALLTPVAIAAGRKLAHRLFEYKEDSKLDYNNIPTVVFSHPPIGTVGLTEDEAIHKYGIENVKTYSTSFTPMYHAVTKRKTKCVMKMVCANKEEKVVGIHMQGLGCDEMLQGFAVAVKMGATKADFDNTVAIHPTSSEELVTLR
Briefly: Inhibition of recombinant GR (GSSG assay). It is filed as biochemical. Here is the method:
as §1

The mark [3] stands for this setting: Biological Example 1, 15 nM TrxR1, 250 μM NADPH, 15 minutes incubation, read-out: TrxR inhibition.
[4] abbreviates: Biological Example 4, assays of Biological Example 1, read-out: TrxR Inhibition.
Where [5] appears, read: Biological Example 1, 2 nM GR, 250 μM NADPH, 15 minutes incubation.
The mark [6] stands for this setting: Biological Example 4, assays of Biological Example 1.

We go through 19 compounds from patent US10881653B2, “Tricyclic compounds and their use in the treatment of cancer” (The United States of America, as represented by the …, priority 2015, dated 2021).

Structures can show the parent of a compound that is named as a salt. Where two headings read alike, the source gives them in different places. Bounds are passed on as bounds.

For `O=C1C=C[C@H]2[C@@H]3C(=O)N(C4CCCCC4)C(=O)[C@@H]3[C@@H]1N2Cc1ccccc1` (relative stereo) [Example 9, exo-11-Benzyl-4-cyclohexyl-4,11-diazatricyclo[5.3.1.0^2,6]undec-9-ene-3,5,8-trione Trifluoroacetate], the IC50 in test [1] (setting [3]) was 1850 nM; in test [1] (setting [4]), 1850 nM; in test [2] (setting [5]), > 100000 nM; in test [2] (setting [6]), > 100000 nM.
As for `Cc1ccccc1CN1[C@@H]2C(=O)C=C[C@H]1[C@@H]1C(=O)N(c3ccccc3)C(=O)[C@@H]12` (relative stereo) [Example 19, exo-11-(2-Methylbenzyl)-4-phenyl-4,11-diazatricyclo[5.3.1.0^2,6]undec-9-ene-3,5,8-trione Trifluoroacetate], the IC50 in test [1] (setting [4]) is 1500 nM; in test [2] (setting [6]), > 100000 nM.
Turning to `CCN1C(=O)[C@@H]2[C@H](C1=O)[C@H]1C(=O)C=C[C@@H]2N1C` (relative stereo) [Example 61, exo-4-Ethyl-11-methyl-4,11-diazatricyclo[5.3.1.0^2,6]undec-9-ene-3,5,8-trione Trifluoroacetate], the IC50 in test [1] (setting [4]) was 23400 nM; in test [2] (setting [6]), > 100000 nM.
For the compound `N#Cc1cccc(CN2C3C=CC(=O)C2C2C(=O)N(c4ccccc4)C(=O)C23)c1` (stereo not drawn) [Example 36, 3-((4-Phenyl-3,5,10-trioxo-4,11-diazatricyclo[5.3.1.0^2,6]undec-8-en-11-yl)-methyl)benzonitrile Trifluoroacetate], the IC50 in test [1] (setting [4]) stood at 1470 nM; in test [2] (setting [6]), 68500 nM.
In the case of `O=C1C=C[C@H]2[C@@H]3C(=O)N(c4ccc(O)cc4)C(=O)[C@@H]3[C@@H]1N2Cc1ccccc1` (relative stereo) [Example 54, exo-11-Benzyl-4-(4-hydroxyphenyl)-4,11-diazatricyclo[5.3.1.0^2,6]undec-9-ene-3,5,8-trione Trifluoroacetate], the IC50 in test [1] (setting [4]) is 1800 nM; in test [2] (setting [6]), > 100000 nM.
Take `O=C1C=CC2C3C(=O)N(c4ccccc4)C(=O)C3C1N2Cc1cccc(Cl)c1` (stereo not drawn) [Example 41, endo-11-(3-Chlorobenzyl)-4-phenyl-4,11-diazatricyclo[5.3.1.0^2,6]undec-9-ene-3,5,8-trione Trifluoroacetate]: the results for the IC50 in test [1] (setting [4]) and in test [2] (setting [6]) were 2350 nM and 49500 nM, respectively.
Taken in the same sequence, the figures for `CC(=O)Nc1ccc(N2C(=O)[C@@H]3[C@H](C2=O)[C@H]2C(=O)C=C[C@@H]3N2Cc2cccc(C)c2)cc1` (stereo in doubt) [Example 57, N-(4-(11-(3-Methylbenzyl)-3,5,10-trioxo-4,11-diazatricyclo[5.3.1.0^2,6]undec-8-en-4-yl)phenyl)acetamide Trifluoroacetate] were 3040 nM and > 100000 nM.
In the case of `Cc1cccc(CN2[C@@H]3C(=O)C=C[C@H]2C2C(=O)N(c4cccc(N5CCOCC5)c4)C(=O)C23)c1` (stereo partly drawn) [Example 69, endo-11-(3-Methylbenzyl)-4-(3-(4-morpholino)phenyl)-4,11-diazatricyclo-[5.3.1.0^2,6]undec-9-ene-3,5,8-trione Trifluoroacetate], the IC50 in test [1] (setting [3]) is 7400 nM; in test [1] (setting [4]), 4150 nM; in test [2] (setting [5]), > 100000 nM; in test [2] (setting [6]), > 100000 nM.
Consider `O=C1C=C[C@H]2[C@@H]3C(=O)N(c4ccccc4)C(=O)[C@@H]3[C@@H]1N2Cc1ccc(F)cc1Cl` (relative stereo) [Example 18, exo-11-(2-Chloro-4-fluorobenzyl)-4-phenyl-4,11-diazatricyclo[5.3.1.0^2,6]-undec-9-ene-3,5,8-trione Trifluoroacetate], for which the IC50 in test [1] (setting [3]) is 2450 nM; in test [1] (setting [4]) it was 940 nM; in test [2] (setting [5]), 70400 nM; in test [2] (setting [6]), 22000 nM.
Take `COc1cccc(CN2[C@@H]3C(=O)C=C[C@H]2[C@@H]2C(=O)N(c4ccccc4)C(=O)[C@@H]23)c1` (relative stereo) [Example 22, exo-11-(3-Methoxybenzyl)-4-phenyl-4,11-diazatricyclo[5.3.1.0^2,6]undec-9-ene-3,5,8-trione Trifluoroacetate]: the IC50 in test [1] (setting [3]) was 1970 nM; in test [1] (setting [4]), 1240 nM; in test [2] (setting [5]), > 100000 nM; in test [2] (setting [6]) it was 75200 nM.
Turning to `O=C1C=CC2C3C(=O)N(c4ccccc4)C(=O)C3C1N2Cc1ccc(Br)cc1` (stereo not drawn) [Example 6, 11-(4-Bromobenzyl)-4-phenyl-4,11-diazatricyclo[5.3.1.0^2,6]undec-9-ene-3,5,8-trione Trifluoroacetate], the IC50 in test [1] (setting [3]) was 2120 nM; in test [1] (setting [4]), 570 nM; in test [2] (setting [5]), 61900 nM; in test [2] (setting [6]), 31300 nM.
On to `O=C1C=C[C@H]2C3C(=O)N(C4CCCCC4)C(=O)C3[C@@H]1N2Cc1ccccc1` (mixture of isomers) [Example 10, endo-11-Benzyl-4-cyclohexyl-4,11-diazatricyclo[5.3.1.0^2,6]undec-9-ene-3,5,8-trione Trifluoroacetate], for which the IC50 in test [1] (setting [3]) was 2700 nM; in test [1] (setting [4]), 790 nM; in test [2] (setting [5]), > 100000 nM; in test [2] (setting [6]), > 100000 nM.
As for `CC(c1ccccc1)N1C2C=CC(=O)C1C1C(=O)N(c3ccccc3)C(=O)C12` (stereo not drawn) [Example 5, 4-Phenyl-11-(1-phenylethyl)-4,11-diazatricyclo[5.3.1.0^2,6]undec-9-ene-3,5,8-trione Trifluoroacetate], the IC50 in test [1] (setting [4]) was 2490 nM; in test [2] (setting [6]) it was > 100000 nM.
Consider `O=C1C=C[C@H]2[C@@H]3C(=O)N(c4ccccc4)C(=O)[C@@H]3[C@@H]1N2Cc1cc(F)ccc1F` (relative stereo) [Example 27, exo-11-(2,5-Difluorobenzyl)-4-phenyl-4,11-diazatricyclo[5.3.1.0^2,6]undec-9-ene-3,5,8-trione Trifluoroacetate], for which the IC50 in test [1] (setting [4]) was 1340 nM; in test [2] (setting [6]), > 100000 nM.
With `Cc1cccc(CN2[C@@H]3C(=O)C=C[C@H]2[C@@H]2C(=O)N(c4cccc(Br)c4)C(=O)[C@@H]23)c1` (relative stereo) [Example 62, exo-4-(3-Bromophenyl)-11-(3-methylbenzyl)-4,11-diazatricyclo[5.3.1.0^2,6]-undec-9-ene-3,5,8-trione Trifluoroacetate], the IC50 is 1230 nM in test [1] (setting [4]) and > 100000 nM in test [2] (setting [6]).
Turning to `Cc1cccc(CN2[C@@H]3C(=O)C=C[C@H]2[C@@H]2C(=O)N(c4cccc(O)c4)C(=O)[C@@H]23)c1` (relative stereo) [Example 58, exo-4-(3-Hydroxyphenyl)-11-(3-methylbenzyl)-4,11-diazatricyclo[5.3.1.0^2,6]undec-9-ene-3,5,8-trione Trifluoroacetate], the IC50 in test [1] (setting [3]) was 750 nM; in test [1] (setting [4]), 1300 nM; in test [2] (setting [5]), > 100000 nM; in test [2] (setting [6]), > 100000 nM.
For `O=C1C=C[C@H]2[C@@H]3C(=O)N(c4ccccc4)C(=O)[C@@H]3[C@@H]1N2CCc1ccccc1` (relative stereo) [Example 7, exo-4-Phenyl-11-(2-phenylethyl)-4,11-diazatricyclo[5.3.1.0^2,6]undec-9-ene-3,5,8-trione Trifluoroacetate], the IC50 in test [1] (setting [3]) was 1750 nM; in test [1] (setting [4]), 1970 nM; in test [2] (setting [5]), > 100000 nM; in test [2] (setting [6]), > 100000 nM.
`CN1C(=O)C2C(C1=O)[C@@H]1C=CC(=O)[C@H]2N1Cc1ccccc1` (mixture of isomers) [Example 50, endo-11-Benzyl-4-methyl-4,11-diazatricyclo[5.3.1.0^2,6]undec-9-ene-3,5,8-trione Trifluoroacetate]: the IC50 was 3080 nM in test [1] (setting [4]) and > 100000 nM in test [2] (setting [6]).
Regarding `Cc1cccc(CN2[C@@H]3C(=O)C=C[C@H]2C2C(=O)N(C)C(=O)C23)c1` (stereo partly drawn) [Example 52], the IC50 in test [1] (setting [4]) is 1810 nM; in test [2] (setting [6]), > 100000 nM.
